Experimental data published in patent publication US20070276103A1, “Fluorinated Surfactants” (3M Innovative Properties Company, priority 2006, published 2007).
Read-outs that look alike come from different tables or passages of the source.

Key:
[1] = Determination of bio-accumulation: urinary clearance pharmacokinetic study in rats; details: male Sprague Dawley rats, 73 micro Moles per kg, oral gavage; for Compound-related Effects: clinical signs of toxicity and gross necropsy at 96 hours post-dose; for % Recovery (96 h): recovery of compound in urine 96 h post-dose; for T ½: renal (urinary) elimination half-life, parent compound in urine by fluorine NMR, exponential least squares curve fitting
Method: (§1) The perfluorinated and partially fluorinated carboxylates were evaluated for urinary clearance using a pharmacokinetic study in rats. The goal was to measure the total amount of parent compound eliminated via urinary output and estimate the rate of elimination.
(§2) The study utilized male Sprague Dawley rats, 6 to 8 weeks of age, and approximately 200 to 250 g body weight at study onset. The test compounds of Table 2 were administered at a dose of 73 micro Moles per kg body weight in rats (N=3 animals per tested compound). All test compounds were prepared in sterile deionized water and given to rats via oral gavage. After test compound administration, the rats were housed individually in metabolism cages for urine collection: 0 to 6 hours, 6 to 24 hours, 24 to 48 hours and 72 to 96 hours. Animals were observed throughout the study for clinical signs of toxicity. Gross necropsy was performed at the termination of each study (96 hours post-dose) with sera and liver samples being retained from each animal.
(§3) The concentration of the parent compound or metabolites thereof were quantitatively measured via fluorine NMR on each urine sample for each animal at each time point based on internally added standards.
(§4) In Table 2, T1/2 is the time required for the amount of a particular substance in a biological system to be reduced to one half of its value by biological processes when the rate of removal is approximately exponential. In these examples the value of T1/2 is calculated by exponential least squares curve fitting (y=AeBX and T1/2=0.693/B) where y represents the concentration of analyte in urine and x represents time in hours.

[2] = rat, in vivo, po
Method: as §1, §2, §3, §4

Row | Structure (SMILES) | Compound-related Effects [1] | % Recovery (96 h) [1] [%] | T ½ [1] [days] | Compound-related Effects [2]
1 | N.O=C(O)C(F)(F)C(F)(F)OC(F)(F)C(F)(F)C(F)(F)C(F)(F)F [Example 1, C4F9—O—CF2—CF2—COONH4] | Hepatomegaly | 42 | 1.29 | 
2 | N.O=C(O)C(F)(F)C(F)(F)C(F)(F)C(F)(F)C(F)(F)OC(F)C(F)(F)F (centres unmarked) [Example 3, CF3—CFH—O—(CF2)5—COONH4] |  |  |  | Hepatomegaly
3 | N.O=C(O)C(F)(F)C(F)(F)C(F)(F)C(F)(F)C(F)(F)C(F)(F)C(F)(F)F [Example C1, CF3(CF2)6COONH4] | Hepatomegaly | 6 | ~22.9 | 
4 | N.O=C(O)C(F)(F)OC(F)(F)C(F)(OC(F)(F)C(F)(F)C(F)(F)F)C(F)(F)F (centres unmarked) [Example C2, CF3CF2CF2OCF(CF3)CF2OCF2COONH4] |  |  |  | Hepatomegaly
